From PubChem BioAssay (NCI)
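Test compounds were applied to cells in 96-well plates for 48 hours at 5 doses. GI50: concentration for 50% inhibition of growth. The concentration for full growth arrest is given as TGI.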

How the values were obtained:
Test in all cases: NCI tumour cell line growth inhibition, 48 h
UACC-62 melanoma = test system: UACC-62 melanoma
XF 498 CNS = test system: XF 498 CNS
RPMI-8226 leukemia = test system: RPMI-8226 leukemia
DMS 273 small cell lung = test system: DMS 273 small cell lung
SNB-78 CNS = test system: SNB-78 CNS
KM20L2 colon = test system: KM20L2 colon
HT29 colon = test system: HT29 colon
SNB-19 CNS = test system: SNB-19 CNS
A498 renal = test system: A498 renal
MDA-MB-231 breast = test system: MDA-MB-231 breast
HS 578T breast = test system: HS 578T breast
MCF7 breast = test system: MCF7 breast

Compound	TGI (UACC-62 melanoma)	TGI (XF 498 CNS)	TGI (RPMI-8226 leukemia)	TGI (DMS 273 small cell lung)	TGI (SNB-78 CNS)	TGI (KM20L2 colon)	TGI (HT29 colon)	TGI (SNB-19 CNS)	TGI (A498 renal)	GI50 (A498 renal)	GI50 (UACC-62 melanoma)	GI50 (MDA-MB-231 breast)	TGI (MDA-MB-231 breast)	GI50 (RPMI-8226 leukemia)	GI50 (HT29 colon)	GI50 (SNB-19 CNS)	GI50 (HS 578T breast)	TGI (HS 578T breast)	GI50 (MCF7 breast)	TGI (MCF7 breast)
CC1=C(CC2C(=O)N(c3ccccc3)S(=O)(=O)NC2C)C(=O)N(c2ccccc2)S(=O)(=O)N1C (stereo unspecified)	> 100 µM	> 100 µM	> 100 µM	> 100 µM	> 100 µM	> 100 µM	> 100 µM	> 100 µM	–	–	–	–	–	–	–	–	–	–	–	–
Cc1ccccc1-n1c(N)c(-c2nc3ccccc3[nH]2)sc1=S	37.1 µM	–	62.2 µM	35 µM	74.8 µM	–	36.9 µM	66.4 µM	> 100 µM	–	–	–	–	–	–	–	–	–	–	–
O=C1C=C(O)C(=Cc2c(O)cc(O)cc2O)C(O)=C1	> 100 µM	> 100 µM	> 100 µM	> 100 µM	> 100 µM	> 100 µM	> 100 µM	> 100 µM	> 100 µM	–	–	–	–	–	–	–	–	–	–	–
O=C(NCCNCCO)c1cccc2ccc(-c3ccccc3)nc12	13.8 µM	–	–	14.1 µM	29.1 µM	–	14.6 µM	28.7 µM	8.41 µM	–	–	–	–	–	–	–	–	–	–	–
COC(=O)C(C(=O)C(=O)Nc1ccc([N+](=O)[O-])cc1)c1nc2ccc([N+](=O)[O-])cc2[nH]c1=O (stereo unspecified)	> 100 µM	–	–	> 100 µM	> 100 µM	> 100 µM	> 100 µM	> 100 µM	> 100 µM	–	–	–	–	–	–	–	–	–	–	–
N[C@H](COCc1ccccc1)c1ccccc1	> 100 µM	48.3 µM	45.2 µM	50 µM	> 100 µM	75.8 µM	> 93.9 µM	> 89.7 µM	88.2 µM	–	–	–	–	–	–	–	–	–	–	–
COc1ccc(OC(=O)CC2Cc3cc(OC)c(OC)c(OC)c3-c3ccc(SC)c(=O)cc32)cc1 (stereo unspecified)	21 µM	7.8 µM	14.4 µM	> 100 µM	–	–	> 100 µM	> 100 µM	2.57 µM	–	–	–	–	–	–	–	–	–	–	–
N#CCN1C(=O)c2cc([N+](=O)[O-])cc3cc([N+](=O)[O-])cc(c23)C1=O	29.2 µM	25 µM	> 38.3 µM	> 100 µM	> 58 µM	23.6 µM	> 69.2 µM	> 100 µM	> 100 µM	–	–	–	–	–	–	–	–	–	–	–
Cc1ccc(NC(=O)C(=O)C(C(=O)/C=C/c2ccccc2)C2OC(=O)c3ccccc32)c(C)c1 (stereo unspecified)	> 100 µM	> 100 µM	> 100 µM	–	> 100 µM	> 100 µM	> 100 µM	> 100 µM	> 100 µM	–	–	–	–	–	–	–	–	–	–	–
Cc1cc(=O)c2c(O)cc3c(c2o1)CC=C(COC1OC(COC2OC(CO)C(O)C(O)C2O)C(O)C(O)C1O)CO3 (stereo unspecified)	> 100 µM	> 100 µM	–	> 100 µM	> 100 µM	> 100 µM	–	> 100 µM	–	–	–	–	–	–	–	–	–	–	–	–
CC1=NN(c2ccccc2)C(=O)/C1=C\c1ccc([N+](=O)[O-])cc1	53.3 µM	44.6 µM	57.2 µM	62.7 µM	> 100 µM	> 100 µM	97 µM	> 100 µM	56.2 µM	–	–	–	–	–	–	–	–	–	–	–
c1ccc2c(c1)CCc1c-2n[nH]c1-c1[nH]nc2c1CCc1ccccc1-2	> 100 µM	> 100 µM	–	> 100 µM	> 100 µM	> 100 µM	> 100 µM	> 100 µM	> 100 µM	–	–	–	–	–	–	–	–	–	–	–
CCOc1ccc(NC(=O)CCc2nnc(SC)o2)cc1	> 100 µM	–	–	> 100 µM	> 100 µM	> 100 µM	> 100 µM	> 100 µM	> 100 µM	–	–	–	–	–	–	–	–	–	–	–
COc1cc(C2(C)SCCCS2)cc(OC)c1OC	> 100 µM	–	> 100 µM	> 100 µM	–	> 100 µM	> 100 µM	> 100 µM	> 100 µM	–	–	–	–	–	–	–	–	–	–	–
NC1=NC(=O)C(CC(=O)Nc2ccc(Cl)cc2Cl)S1 (stereo unspecified)	> 100 µM	> 100 µM	> 100 µM	> 100 µM	> 100 µM	> 100 µM	> 100 µM	> 100 µM	> 100 µM	–	–	–	–	–	–	–	–	–	–	–
O=C(Cc1nc2ccccc2o1)C(=O)Nc1cccc(C(F)(F)F)c1	> 100 µM	–	> 100 µM	> 100 µM	> 100 µM	> 100 µM	> 100 µM	> 100 µM	> 100 µM	–	–	–	–	–	–	–	–	–	–	–
Cc1cccc(NC(=O)/C(=N\N)C(c2cnc3ccc([N+](=O)[O-])cc3n2)[N+](=O)[O-])c1C (stereo unspecified)	> 100 µM	> 100 µM	–	> 100 µM	–	> 100 µM	> 100 µM	> 100 µM	–	–	–	–	–	–	–	–	–	–	–	–
c1cc(-c2cn3c(n2)SCC3)ccn1	> 100 µM	> 100 µM	> 100 µM	93.1 µM	> 100 µM	> 100 µM	> 100 µM	> 100 µM	> 100 µM	–	–	–	–	–	–	–	–	–	–	–

Compound	TGI (UACC-62 melanoma)	TGI (XF 498 CNS)	TGI (RPMI-8226 leukemia)	TGI (DMS 273 small cell lung)	TGI (SNB-78 CNS)	TGI (KM20L2 colon)	TGI (HT29 colon)	TGI (SNB-19 CNS)	TGI (A498 renal)	GI50 (A498 renal)	GI50 (UACC-62 melanoma)	GI50 (MDA-MB-231 breast)	TGI (MDA-MB-231 breast)	GI50 (RPMI-8226 leukemia)	GI50 (HT29 colon)	GI50 (SNB-19 CNS)	GI50 (HS 578T breast)	TGI (HS 578T breast)	GI50 (MCF7 breast)	TGI (MCF7 breast)
N#CC1(C#N)C(c2ccccc2)C=CC12OCCCO2 (stereo unspecified)	> 100 µM	> 100 µM	91.7 µM	> 100 µM	> 100 µM	> 100 µM	> 100 µM	> 100 µM	> 100 µM	–	–	–	–	–	–	–	–	–	–	–
CC(=O)/C(=C\c1ccccc1O)C(=O)Nc1ccccc1C	68.7 µM	28.1 µM	71.4 µM	–	98.7 µM	–	37.2 µM	54.3 µM	–	–	–	–	–	–	–	–	–	–	–	–
CCOC(=O)/C(I)=C/c1cc(OC)c(OC)c(OC)c1	16.1 µM	27.5 µM	21.1 µM	22.7 µM	> 100 µM	12.4 µM	15.1 µM	31.8 µM	91.3 µM	–	–	–	–	–	–	–	–	–	–	–
COc1ccc(-c2[nH]c3ccccc3c2CCNS(=O)(=O)c2ccc(C)cc2)cc1	> 10 µM	> 10 µM	> 10 µM	> 10 µM	> 10 µM	> 10 µM	> 10 µM	> 10 µM	> 10 µM	–	–	–	–	–	–	–	–	–	–	–
CCOC(=O)C1Nc2ccccc2[C@H]2OCC[C@@H]12 (stereo partly specified)	> 100 µM	> 100 µM	–	> 100 µM	> 100 µM	> 100 µM	> 100 µM	> 100 µM	> 100 µM	–	–	–	–	–	–	–	–	–	–	–
COc1cc2cc(Oc3ccc(NC(=O)c4ccc(Cl)c(Cl)c4)cc3)c(C)nc2cc1OC	> 100 µM	–	> 100 µM	–	–	–	> 100 µM	> 100 µM	> 100 µM	20.6 µM	> 100 µM	9.89 µM	> 100 µM	3.7 µM	7.89 µM	> 100 µM	7.24 µM	> 100 µM	5.32 µM	> 100 µM
COc1cc2ncc3c(nc4sccn43)c2cc1OC	> 100 µM	–	89 µM	–	–	–	> 100 µM	> 100 µM	> 100 µM	8.01 µM	22.9 µM	24.2 µM	78.3 µM	26.4 µM	69.7 µM	47.2 µM	22.1 µM	> 100 µM	36.8 µM	> 100 µM
O=Cc1ccc2c(c1I)OCO2	> 100 µM	–	> 100 µM	> 100 µM	> 100 µM	> 100 µM	> 100 µM	> 100 µM	> 100 µM	–	–	–	–	–	–	–	–	–	–	–
Nc1nc(N)c(CCCCc2ccccc2)c(N)n1	> 100 µM	> 100 µM	> 100 µM	> 100 µM	–	> 100 µM	> 100 µM	> 100 µM	> 100 µM	–	–	–	> 100 µM	–	–	–	–	> 100 µM	–	> 100 µM
CCCC(S(=O)(=O)c1ccccc1)S(=O)(=O)c1ccccc1	> 100 µM	> 100 µM	> 100 µM	> 100 µM	> 100 µM	> 100 µM	> 100 µM	–	> 100 µM	–	–	–	–	–	–	–	–	–	–	–
O=C1C(OCCOc2ccccc2)=C(OCCOc2ccccc2)C(=O)c2ccccc21	> 100 µM	–	> 100 µM	–	–	–	> 100 µM	> 100 µM	> 100 µM	18.2 µM	6.79 µM	> 100 µM	> 100 µM	> 100 µM	9.95 µM	11.1 µM	8.96 µM	> 100 µM	7.74 µM	> 100 µM
N#CNc1nc(N)c(-c2ccc(Cl)cc2)c(C(=O)Nc2nccs2)n1	> 100 µM	> 100 µM	> 100 µM	> 100 µM	> 100 µM	> 100 µM	> 100 µM	> 100 µM	> 100 µM	–	–	–	–	–	–	–	–	–	–	–
Cc1cc2c(c(C(N)=O)c1C)-c1cc(Cl)cc(Cl)c1C2=O	> 100 µM	–	> 100 µM	> 100 µM	> 100 µM	> 100 µM	> 100 µM	> 100 µM	> 100 µM	–	–	–	–	–	–	–	–	–	–	–
CC(C)(C)c1cc2nc(c1)C(C(F)(F)F)(C(F)(F)F)OB(Br)OC2(C(F)(F)F)C(F)(F)F	0.983 µM	6.91 µM	3.76 µM	0.107 µM	1.56 µM	1.25 µM	12.1 µM	14.9 µM	–	–	–	–	–	–	–	–	–	–	–	–
Oc1cc(-n2cccn2)c(O)cc1-n1cccn1	71.3 µM	32.7 µM	72.1 µM	> 58.2 µM	> 68.7 µM	> 100 µM	56.2 µM	> 82.3 µM	> 92.2 µM	–	–	–	50.5 µM	–	–	–	–	> 100 µM	–	55.1 µM
COc1cc(C(=O)c2cc(C)c3[nH]c4ccc(O)cc4c3c2C)cc(OC)c1OC	> 100 µM	–	> 100 µM	–	–	–	–	> 47.3 µM	< 0.0189 µM	< 0.01 µM	< 0.01 µM	0.0355 µM	–	0.0228 µM	0.0276 µM	0.0289 µM	0.0141 µM	> 100 µM	< 0.01 µM	> 44.4 µM
FC(F)(F)c1cccc(-c2nn3ncccc3c2-c2ccnc(Nc3ccc4c(c3)OCCO4)n2)c1	> 25 µM	–	> 25 µM	–	–	–	> 25 µM	> 25 µM	> 25 µM	9.59 µM	15 µM	9.02 µM	> 25 µM	7.88 µM	7.32 µM	> 25 µM	16.4 µM	> 25 µM	14.4 µM	> 25 µM
CC1=C(C(=O)Nc2ccc(Cl)c(Cl)c2)C(c2ccc([N+](=O)[O-])cc2)C(C(=O)Nc2ccc(Cl)c(Cl)c2)=C(C)N1	4.46 µM	4.38 µM	8.63 µM	9.14 µM	26.7 µM	4.3 µM	7.55 µM	> 71.3 µM	14.8 µM	–	–	–	–	–	–	–	–	–	–	–
